Source: patent US8415469B2, “Compounds and methods for kinase modulation, and indications therefor” (Plexxikon Inc., priority 2005, dated 2013)

Columns and labels:
Type in all cases: biochemical
Jnk3 = molecular target: T1, Jnk3 (Homo sapiens, UniProt P53779); assay: AlphaScreen kinase assay, Jnk3; settings: read-out: IC50, activity toward kinase Jnk3
T1 construct: purchased Upstate Biotechnology

Zap70 = molecular target: T2, Zap70 (Homo sapiens, UniProt P43403); assay: AlphaScreen kinase assay, Zap70; settings: read-out: IC50, activity toward kinase Zap70
T2 construct: P1868.pFastBac1 ZAP70 D327-G606 HIS, WT; His7 (HHHHHHH) (C); made in house
T2 sequence (P43403 with tags, fused parts or gaps): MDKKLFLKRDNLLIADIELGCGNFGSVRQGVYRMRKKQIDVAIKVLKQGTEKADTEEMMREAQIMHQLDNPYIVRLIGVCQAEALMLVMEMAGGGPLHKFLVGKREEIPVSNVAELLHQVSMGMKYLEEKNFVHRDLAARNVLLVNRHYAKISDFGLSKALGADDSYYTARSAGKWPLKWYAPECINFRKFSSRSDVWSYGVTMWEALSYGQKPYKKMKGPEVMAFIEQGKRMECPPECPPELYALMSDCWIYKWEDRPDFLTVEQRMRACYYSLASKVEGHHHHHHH
Method in brief: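 Peptide phosphorylation detected by proximity: streptavidin donor beads bind biotinylated substrate, acceptor beads carry antibody to phosphorylated substrate, singlet oxygen transfer gives emission. Dose-response over 8 points (1:3 steps); stocks 20 mM in DMSO.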

Abl = molecular target: T3, Abl (Homo sapiens, UniProt P00519); assay: AlphaScreen kinase assay, Abl; settings: read-out: activity toward kinase Abl, IC50
T3 construct: P1121. pET-SPEC BI-PTP Abl G227-V515-X; His6 (N); made in house; host or cells: E. coli (PTP1B co-expressed)
T3 sequence (P00519 with tags, fused parts or gaps): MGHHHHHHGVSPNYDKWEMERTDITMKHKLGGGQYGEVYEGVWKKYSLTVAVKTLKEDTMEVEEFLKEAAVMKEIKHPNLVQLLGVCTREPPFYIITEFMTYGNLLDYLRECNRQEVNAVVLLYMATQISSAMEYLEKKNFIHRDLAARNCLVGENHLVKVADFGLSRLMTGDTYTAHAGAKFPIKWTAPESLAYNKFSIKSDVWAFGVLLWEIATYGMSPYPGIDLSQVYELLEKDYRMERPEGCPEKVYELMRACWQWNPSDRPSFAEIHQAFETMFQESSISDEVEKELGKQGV
Description: (§1) AlphaScreen assay was used to screen additional kinases. The assay is similarly dependent on the phosphorylation of a peptide substrate. In this assay, an antibody that recognizes phosphorylated substrate is bound to an acceptor bead. The peptide substrate is attached to biotin, which binds to a donor head that contains streptavidin. Thus phosphorylated substrate is bound by antibody and streptavidin, bringing the donor and acceptor heads into close proximity when kinase is not inhibited. The donor produces singlet oxygen which results in emission from the acceptor when they are in close proximity. Conversely, when kinase is inhibited, the donor and acceptor beads are not associated and the emission from the acceptor is reduced.
(§2) AlphaScreen assays were done using compounds dissolved in DMSO to a concentration of 20 mM. The compounds were diluted accordingly to the desired final concentrations in each sample well, using 1:3 serial dilution for a total of 8 concentration points.

B-Raf V600E = molecular target: T4, B-Raf V600E (Homo sapiens, UniProt P15056, V600E); assay: AlphaScreen kinase assay, B-Raf V600E; settings: read-out: IC50, activity toward kinase B-Raf V600E
T4 construct: P4254. pFastBacBD-CDC37 BRAF D437-K722-X, V600E; His6 with pFastBac HT leader (TEV site) (N); made in house; host or cells: Sf9 (baculovirus; chaperone CDC37 co-expressed)
T4 sequence (P15056 with tags, fused parts or gaps V600E): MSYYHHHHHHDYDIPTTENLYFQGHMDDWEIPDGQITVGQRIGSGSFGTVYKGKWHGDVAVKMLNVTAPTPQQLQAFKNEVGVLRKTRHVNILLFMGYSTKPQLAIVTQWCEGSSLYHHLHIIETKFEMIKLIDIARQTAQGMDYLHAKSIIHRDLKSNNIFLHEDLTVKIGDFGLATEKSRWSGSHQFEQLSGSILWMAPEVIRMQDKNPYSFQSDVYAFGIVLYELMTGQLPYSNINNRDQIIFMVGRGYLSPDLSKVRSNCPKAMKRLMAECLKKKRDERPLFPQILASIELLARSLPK

Btk = molecular target: T5, Btk (Homo sapiens, UniProt Q06187); assay: Z'-Lyte FRET kinase assay (Invitrogen), Btk; settings: read-out: IC50, activity toward kinase Btk
T5 construct: purchased Invitrogen (assay run by Invitrogen)

Ret = molecular target: T6, Ret (Homo sapiens, UniProt P07949); assay: AlphaScreen kinase assay, Ret; settings: read-out: IC50, activity toward kinase Ret
T6 construct: P1378.pET-SF BI-PTP RET H661-R1012 HIS; made in house
T6 sequence (P07949 with tags, fused parts or gaps): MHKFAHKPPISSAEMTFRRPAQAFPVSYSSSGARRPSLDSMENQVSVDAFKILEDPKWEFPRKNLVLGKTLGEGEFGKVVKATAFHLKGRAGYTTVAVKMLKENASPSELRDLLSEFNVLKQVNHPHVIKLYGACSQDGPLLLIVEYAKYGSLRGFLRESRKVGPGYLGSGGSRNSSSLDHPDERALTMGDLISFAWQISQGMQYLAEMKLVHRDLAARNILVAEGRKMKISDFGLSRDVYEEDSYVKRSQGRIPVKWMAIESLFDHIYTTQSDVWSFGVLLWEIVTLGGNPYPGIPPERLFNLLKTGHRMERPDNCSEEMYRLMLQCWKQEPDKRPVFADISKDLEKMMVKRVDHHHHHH

Yes = molecular target: T7, Yes (Homo sapiens, UniProt P07947); assay: Z'-Lyte FRET kinase assay (Invitrogen), Yes; settings: read-out: IC50, activity toward kinase Yes
T7 construct: purchased Invitrogen (Carlsbad, Calif.), screening service
Method in brief: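 Z′-Lyte FRET assay: kinase phosphorylates 2 μM peptide substrate at 10 μM ATP in 50 mM HEPES pH 7.5, 50 mM MgCl2, 5 mM EGTA, 0.05% BRIJ-35, 1% DMSO, 1 h at room temperature. Protease development 1 h; coumarin/fluorescein emission ratio gives phosphorylation extent over compound concentration curves.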

Kdr = molecular target: T8, Kdr (Homo sapiens, UniProt P35968); assay: Z'-Lyte FRET kinase assay (Invitrogen), Kdr; settings: read-out: IC50, activity toward kinase Kdr
T8 construct: purchased Invitrogen (assay run by Invitrogen)

c-Raf-1 = molecular target: T9, c-Raf-1 (Homo sapiens, UniProt P04049); assay: AlphaScreen kinase assay, c-Raf-1; settings: read-out: IC50, activity toward kinase c-Raf-1
T9 construct: purchased Upstate Biotechnology
T9 sequence (P04049 whole entry): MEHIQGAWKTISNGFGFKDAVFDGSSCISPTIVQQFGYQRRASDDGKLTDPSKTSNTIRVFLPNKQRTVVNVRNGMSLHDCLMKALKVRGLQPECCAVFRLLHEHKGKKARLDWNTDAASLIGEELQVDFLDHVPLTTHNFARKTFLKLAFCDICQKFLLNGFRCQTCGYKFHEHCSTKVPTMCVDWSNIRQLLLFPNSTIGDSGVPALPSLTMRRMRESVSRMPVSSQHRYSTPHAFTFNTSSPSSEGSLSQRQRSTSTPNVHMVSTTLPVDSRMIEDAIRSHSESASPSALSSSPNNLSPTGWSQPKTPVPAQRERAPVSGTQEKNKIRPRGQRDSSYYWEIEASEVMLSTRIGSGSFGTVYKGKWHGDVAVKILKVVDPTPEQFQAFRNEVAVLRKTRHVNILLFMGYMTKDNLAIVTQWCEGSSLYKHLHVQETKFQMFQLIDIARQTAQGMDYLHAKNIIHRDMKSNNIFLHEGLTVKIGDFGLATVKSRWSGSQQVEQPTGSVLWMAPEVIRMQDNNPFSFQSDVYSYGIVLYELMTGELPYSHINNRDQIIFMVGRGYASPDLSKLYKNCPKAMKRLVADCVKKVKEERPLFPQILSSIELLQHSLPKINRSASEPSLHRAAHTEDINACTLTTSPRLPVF
Description: AlphaScreen assays were done using compounds dissolved in DMSO to a concentration of 20 mM. The compounds were diluted accordingly to the desired final concentrations in each sample well, using 1:3 serial dilution for a total of 8 concentration points. Plates were prepared such that each kinase reaction is 20 μl in 1× kinase buffer, 5% DMSO and 10 μM ATP. After incubation of the kinase reaction for 1 hour at room temperature, 5 μl of donor beads in stop buffer (50 mM EDTA in 1× kinase buffer) was added, the sample was mixed and incubated for 20 minutes at room temperature before adding 5 μl of acceptor beads in stop buffer. The samples were incubated for 60 minutes at room temperature and the signal per well was read on AlphaQuest reader.

Met = molecular target: T10, Met (Homo sapiens, UniProt P08581); assay: AlphaScreen kinase assay, Met; settings: read-out: IC50, activity toward kinase Met
T10 construct: P1818.pETN6 BI-PTP MET G1056-G1364-X WT; His6 (N); made in house; host or cells: E. coli (PTP1B co-expressed)
T10 sequence (P08581 with tags, fused parts or gaps): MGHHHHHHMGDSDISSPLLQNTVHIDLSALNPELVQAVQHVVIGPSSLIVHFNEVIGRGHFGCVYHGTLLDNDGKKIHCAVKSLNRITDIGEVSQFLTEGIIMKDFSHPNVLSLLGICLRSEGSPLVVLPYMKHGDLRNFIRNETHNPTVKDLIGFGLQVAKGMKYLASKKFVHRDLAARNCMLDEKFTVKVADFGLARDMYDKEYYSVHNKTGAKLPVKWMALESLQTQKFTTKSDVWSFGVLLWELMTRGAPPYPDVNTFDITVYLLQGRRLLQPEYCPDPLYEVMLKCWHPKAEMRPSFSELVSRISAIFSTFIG
Description: as §1, §2

FGFR1 = molecular target: T11, FGFR1 (Homo sapiens, UniProt P11362, C488A/C584S); assay: AlphaScreen kinase assay, FGFR1; settings: read-out: IC50, activity toward kinase FGFR
T11 construct: P1351.pET N6 BI-PTP FGFR A458-E765-X C488A, C584S; made in house; host or cells: E. coli (PTP1B co-expressed)
T11 sequence (P11362 458-765 C488A/C584S): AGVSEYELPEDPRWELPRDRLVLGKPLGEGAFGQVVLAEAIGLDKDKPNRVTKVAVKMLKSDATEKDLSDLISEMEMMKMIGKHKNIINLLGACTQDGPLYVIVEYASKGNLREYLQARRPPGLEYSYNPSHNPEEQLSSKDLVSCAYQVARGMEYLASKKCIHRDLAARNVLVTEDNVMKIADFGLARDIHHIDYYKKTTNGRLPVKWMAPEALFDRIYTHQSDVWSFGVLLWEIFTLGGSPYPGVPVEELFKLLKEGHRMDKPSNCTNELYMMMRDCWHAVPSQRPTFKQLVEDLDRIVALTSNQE

B-Raf = molecular target: T12, B-Raf (Homo sapiens, UniProt P15056); assay: AlphaScreen kinase assay, B-Raf; settings: read-out: IC50, activity toward kinase B-Raf
T12 construct: purchased Upstate Biotechnology
T12 sequence (P15056 whole entry): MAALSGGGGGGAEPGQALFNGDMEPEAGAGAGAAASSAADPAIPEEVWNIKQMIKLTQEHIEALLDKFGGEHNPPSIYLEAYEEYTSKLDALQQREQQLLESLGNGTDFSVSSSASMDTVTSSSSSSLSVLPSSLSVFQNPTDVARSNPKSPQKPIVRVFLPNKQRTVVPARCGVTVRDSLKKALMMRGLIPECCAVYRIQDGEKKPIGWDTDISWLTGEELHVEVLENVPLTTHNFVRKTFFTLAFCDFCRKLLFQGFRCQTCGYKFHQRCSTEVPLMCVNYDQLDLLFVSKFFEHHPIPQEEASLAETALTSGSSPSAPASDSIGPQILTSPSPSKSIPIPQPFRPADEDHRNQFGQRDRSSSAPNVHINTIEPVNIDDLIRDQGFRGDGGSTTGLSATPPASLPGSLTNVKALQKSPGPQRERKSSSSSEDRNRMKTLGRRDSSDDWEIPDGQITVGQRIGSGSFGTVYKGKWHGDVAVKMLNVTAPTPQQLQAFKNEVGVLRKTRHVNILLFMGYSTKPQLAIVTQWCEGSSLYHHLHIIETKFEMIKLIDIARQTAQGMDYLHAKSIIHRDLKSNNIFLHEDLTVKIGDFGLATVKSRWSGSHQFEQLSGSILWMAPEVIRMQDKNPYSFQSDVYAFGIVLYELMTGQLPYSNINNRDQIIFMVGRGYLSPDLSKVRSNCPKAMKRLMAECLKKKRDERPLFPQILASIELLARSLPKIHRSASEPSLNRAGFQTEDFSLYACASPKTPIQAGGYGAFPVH

Fms = molecular target: T13, Fms (Homo sapiens, UniProt P07333); assay: AlphaScreen kinase assay, Fms; settings: read-out: IC50, activity toward kinase Fms
T13 construct: purchased Upstate Biotechnology
T13 sequence (P07333 20-972): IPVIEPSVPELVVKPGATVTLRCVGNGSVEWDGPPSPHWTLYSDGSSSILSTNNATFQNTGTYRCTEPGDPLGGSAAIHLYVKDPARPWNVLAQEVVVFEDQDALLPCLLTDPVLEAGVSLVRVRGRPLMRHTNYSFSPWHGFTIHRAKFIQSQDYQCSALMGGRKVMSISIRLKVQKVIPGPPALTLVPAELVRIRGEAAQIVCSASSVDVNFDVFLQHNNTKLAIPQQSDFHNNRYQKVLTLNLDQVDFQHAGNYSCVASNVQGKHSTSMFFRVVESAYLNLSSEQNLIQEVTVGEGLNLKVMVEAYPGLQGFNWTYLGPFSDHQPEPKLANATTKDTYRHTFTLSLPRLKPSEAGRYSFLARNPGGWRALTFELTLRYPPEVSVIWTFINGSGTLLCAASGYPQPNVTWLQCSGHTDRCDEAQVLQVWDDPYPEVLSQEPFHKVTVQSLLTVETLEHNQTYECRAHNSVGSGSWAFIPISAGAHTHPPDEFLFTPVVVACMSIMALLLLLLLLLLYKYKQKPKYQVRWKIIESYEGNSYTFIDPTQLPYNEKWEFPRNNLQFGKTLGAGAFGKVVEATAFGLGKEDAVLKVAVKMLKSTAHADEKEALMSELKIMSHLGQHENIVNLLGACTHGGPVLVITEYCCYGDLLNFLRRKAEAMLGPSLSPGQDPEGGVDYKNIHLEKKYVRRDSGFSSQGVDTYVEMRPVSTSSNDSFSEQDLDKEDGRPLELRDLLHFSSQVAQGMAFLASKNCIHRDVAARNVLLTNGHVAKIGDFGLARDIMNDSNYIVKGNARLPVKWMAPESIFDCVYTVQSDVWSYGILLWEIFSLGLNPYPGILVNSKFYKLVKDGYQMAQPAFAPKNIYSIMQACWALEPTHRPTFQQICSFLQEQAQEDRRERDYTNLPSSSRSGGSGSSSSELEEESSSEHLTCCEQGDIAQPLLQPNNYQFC

Kit = molecular target: T14, Kit (Homo sapiens, UniProt P10721); assay: AlphaScreen kinase assay, Kit; settings: read-out: IC50, activity toward kinase Kit
T14 construct: P1332.N6 BI PTP KIT M552-K948-X COD; His6 (N); made in house; host or cells: E. coli (PTP1B co-expressed)
T14 sequence (P10721 with tags, fused parts or gaps): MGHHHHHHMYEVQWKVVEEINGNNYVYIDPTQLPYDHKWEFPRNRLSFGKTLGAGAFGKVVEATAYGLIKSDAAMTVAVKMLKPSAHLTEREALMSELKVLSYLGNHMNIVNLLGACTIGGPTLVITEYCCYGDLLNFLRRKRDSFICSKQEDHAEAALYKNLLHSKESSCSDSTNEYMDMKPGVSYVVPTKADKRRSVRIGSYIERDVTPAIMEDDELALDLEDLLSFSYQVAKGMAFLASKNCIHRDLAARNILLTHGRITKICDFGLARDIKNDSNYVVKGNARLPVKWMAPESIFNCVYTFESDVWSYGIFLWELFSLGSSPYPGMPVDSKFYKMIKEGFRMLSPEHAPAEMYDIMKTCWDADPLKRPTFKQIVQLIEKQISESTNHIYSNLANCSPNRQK

Flt1 = molecular target: T15, Flt1 (Homo sapiens, UniProt P17948); assay: AlphaScreen kinase assay, Flt1; settings: read-out: IC50, activity toward kinase Flt1
T15 construct: P1826.pETN6 BI-PTP FLT1 M799-D1165-X WT; His6 (N); made in house; host or cells: E. coli (PTP1B co-expressed)
T15 sequence (P17948 with tags, fused parts or gaps): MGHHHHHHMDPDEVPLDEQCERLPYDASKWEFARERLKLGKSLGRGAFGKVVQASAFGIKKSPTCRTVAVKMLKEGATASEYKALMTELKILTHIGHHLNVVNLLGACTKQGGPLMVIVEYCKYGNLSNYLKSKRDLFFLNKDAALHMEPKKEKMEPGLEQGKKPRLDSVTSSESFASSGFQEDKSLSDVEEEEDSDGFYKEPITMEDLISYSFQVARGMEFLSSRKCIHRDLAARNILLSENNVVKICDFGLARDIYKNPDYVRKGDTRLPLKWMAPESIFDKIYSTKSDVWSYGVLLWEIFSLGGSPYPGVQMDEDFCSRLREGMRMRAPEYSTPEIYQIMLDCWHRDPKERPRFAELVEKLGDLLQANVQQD

MAP4K4 = MAP4K4 (Homo sapiens, UniProt O95819); assay: AlphaScreen kinase assay, MAP4K4; settings: read-out: IC50, activity toward kinase MAP4K4
Jnk1 = molecular target: T16, Jnk1 (Homo sapiens, UniProt P45983); assay: AlphaScreen kinase assay, Jnk1; settings: read-out: IC50, activity toward kinase Jnk1
T16 construct: purchased Upstate Biotechnology
T16 sequence (P45983 whole entry): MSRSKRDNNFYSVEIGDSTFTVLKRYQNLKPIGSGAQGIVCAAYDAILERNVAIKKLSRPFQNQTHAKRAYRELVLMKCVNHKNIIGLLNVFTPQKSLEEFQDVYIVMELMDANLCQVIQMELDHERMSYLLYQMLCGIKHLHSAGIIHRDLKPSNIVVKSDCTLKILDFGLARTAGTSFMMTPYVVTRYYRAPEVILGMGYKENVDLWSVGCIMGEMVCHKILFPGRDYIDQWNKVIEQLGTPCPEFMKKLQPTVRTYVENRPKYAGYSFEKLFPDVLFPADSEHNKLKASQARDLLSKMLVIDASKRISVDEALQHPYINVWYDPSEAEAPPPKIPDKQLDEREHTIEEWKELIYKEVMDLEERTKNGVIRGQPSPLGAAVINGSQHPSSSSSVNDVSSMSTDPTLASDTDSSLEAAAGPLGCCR

Measured: IC50

T1 sequence (P53779 whole entry): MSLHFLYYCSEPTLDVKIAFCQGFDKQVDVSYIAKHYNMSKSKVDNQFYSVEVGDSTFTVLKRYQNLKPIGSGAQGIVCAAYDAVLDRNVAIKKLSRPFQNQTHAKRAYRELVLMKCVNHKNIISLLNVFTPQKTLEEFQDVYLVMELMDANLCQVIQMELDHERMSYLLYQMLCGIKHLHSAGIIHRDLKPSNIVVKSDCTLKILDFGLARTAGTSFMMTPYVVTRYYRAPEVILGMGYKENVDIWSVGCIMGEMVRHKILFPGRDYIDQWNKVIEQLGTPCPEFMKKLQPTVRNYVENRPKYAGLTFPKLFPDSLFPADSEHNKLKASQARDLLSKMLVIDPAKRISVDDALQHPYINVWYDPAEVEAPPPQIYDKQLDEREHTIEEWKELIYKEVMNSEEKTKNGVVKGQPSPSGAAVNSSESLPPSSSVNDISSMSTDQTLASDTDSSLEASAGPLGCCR

COc1ccc(F)c(C(=O)c2c[nH]c3ncc(-c4cccc(/C=C/C(=O)O)c4)cc23)c1 [Compound P-0047]
≤ 10 µM: Jnk3 | Zap70 | Abl | B-Raf V600E | Btk | Ret | Yes

O=C(c1cccc(Cl)c1F)c1c[nH]c2ncc(-c3cccnc3)cc12 [Compound P-0165, (3-Chloro-2-fluoro-phenyl)-(5-pyridin-3-yl-1H-pyrrolo[2,3-b]pyridin-3-yl)-methanone]
≤ 10 µM: Jnk3 | Kdr | c-Raf-1 | B-Raf V600E | Met | FGFR1 | B-Raf | Ret

O=C(Nc1ccccc1)Nc1ccc(Cc2c[nH]c3ncccc23)cc1 [Compound P-0542]
≤ 10 µM: c-Raf-1 | Met | Ret

O=C(NCc1ccccn1)NCc1c[nH]c2ncccc12 [Compound P-0761]
≤ 10 µM: Met | Ret

CCCS(=O)(=O)Nc1ccc(F)c(C(=O)c2c[nH]c3ncc(Br)cc23)c1F [Compound P-0773, propane-1-sulfonic acid [3-(5-bromo-1H-pyrrolo[2,3-b]pyridine-3-carbonyl)-2,4-difluoro-phenyl]-amide]
≤ 10 µM: c-Raf-1 | B-Raf V600E | Met | FGFR1 | B-Raf | Fms | Kit | Flt1

Cc1cc(C(=O)c2c[nH]c3ncc(-c4cccnc4)cc23)n(C)n1 [Compound P-0800]
≤ 10 µM: Abl | Kit | MAP4K4

Oc1ncc(F)c(Cc2c[nH]c3ncc(-c4ccsc4)cc23)c1F [Compound P-0822]
≤ 10 µM: Jnk3 | Met | Ret

CC(=O)c1cccc(Nc2cnc3[nH]ccc3c2)c1 [Compound P-1008]
≤ 10 µM: Jnk3 | B-Raf V600E | Met | FGFR1 | Fms | Kit | Jnk1 | Flt1

CC(C)(C)c1ccc(Nc2cnc3[nH]ccc3c2)cc1 [Compound P-1023]
≤ 10 µM: Kdr | Met

Cc1ccc(Nc2cnc3[nH]ccc3c2)cc1 [Compound P-1037]
≤ 10 µM: Met

COc1cc(Nc2cnc3[nH]ccc3c2)cc(OC)c1OC [Compound P-1092]
≤ 10 µM: Met

Cc1cccc(-c2c(CSCc3ccccc3)[nH]c3ncccc23)c1 [Compound P-1132]
≤ 10 µM: Met

COC(=O)COc1ccc(F)c(Cc2c[nH]c3ncc(-c4cccnc4)cc23)c1F [Compound P-1465, [2,4-Difluoro-3-(5-pyridin-3-yl-1H-pyrrolo[2,3-b]pyridin-3-ylmethyl)-phenoxy]-acetic acid methyl ester]
≤ 10 µM: Jnk3 | B-Raf V600E | Met | FGFR1 | Fms | Kit | Jnk1 | Flt1
